{
  "source": "patent US12138256B2",
  "about": "“Treatment of cardiopulmonary disorders” (Bayer Aktiengesellschaft, priority 2021, dated 2024)",
  "tested_on": "pulmonary vascular resistance (PVR)",
  "experiment": "Phase 1b, patients with PAH or CTEPH, inhaled single doses, right heart catheterization: PVR and mPAP (C-4.4)",
  "format": "in vivo, human",
  "experimental": "Patients with PAH or CTEPH were treated in a clinical phase 1b study with escalating orally inhaled single* doses of 240 μg (2 capsules of 120 μg), 480 μg, 1000 μg, 2000 (2 capsules of 1000 μg) or 4000 μg (4 capsules of 1000 μg) of a dry powder of example 4 (see under D-1, e.g. tables 17 and 20), inserted into a handheld inhalation device, inhaled by deep inhalative breath into the deep parts of the lung. (*single dose means the administration of one dosage form/capsule as well as administration of two or more dosage forms/capsules simultaneously or consecutively within a short time period). The included patients had no background treatment with standard of care (SoC) medication for PAH or CTEPH (such as endothelin antagonists, prostanoids, phosphodiesterase type 5 inhibitor or soluble guanylate cyclase stimulators). Patients in this study underwent invasive right heart catheterization as medically indicated routine diagnostic. Primary objective of the study was to investigate the peak percent reduction from baseline in PVR. Patients had to have a baseline pulmonary artery pressure (mPAP) of ≥25 mmHg and a PVR of ≥400 dyn·sec·cm^−5 (5 Wood Units) and were not to show vaso-responsiveness to initial iNO inhalation testing to be included in the per protocol analysis. Plasma concentrations (pharmacokinetics) of the administered drug at several time points after administration were measured and safety and tolerability was assessed.\nThe study is divided into two parts, Part A and Part B. In Part A escalating aforementioned single doses were administered to patients without background treatment with standard of care (SoC) medication for PAH or CTEPH (such as endothelin antagonists, prostanoids, phosphodiesterase type 5 inhibitor or soluble guanylate cyclase stimulators). In Part B, after finalization of Part A, a selected dose from PartA will be tested in further patients without background SoC treatment (group 1) and additionally in patients on monotherapy with SoC (group 2) and on dual combination therapy with SoC (group 3).\nThe PVR is a derived parameter from parameters directly measured during the right heart catheterization procedure. The direct parameters included in the calculation are: mean pulmonary arterial pressure [mmHg](mPAP), pulmonary capillary wedge pressure [mmHg] (PCWP), and cardiac output [l/min] (CO). The PVR is calculated according to the formula: PVR [dyn*see*cm^−5]=80*(mPAP-PCWP)/CO.\nOverall 38 patients received a dose of dry powder of example 4. A total of 4 patients in each dose group were included into the per protocol set as planned (total 20 patients). A dose-dependent mean change of PVR from baseline could be clearly observed peaking in an enduring mean change of approximately −30% in the 2000 μg and 4000 μg groups (for details of PVR see FIG. 82 and table C4.4.1). The decreases in PVR were predominantly driven by decreases in pulmonary arterial pressure (for details of mean PAP see FIG. 83 and table C4.4.2). A mean peak change level of −20%—as the predefined relevant threshold level—was clearly exceeded peaking in the 2000 μg and 4000 μg groups (mean peak changes were: −21.0%, −16.1%, −25.9%, −38.1%, −36.3% for 240, 480, 1000, 2000, and 4000 μg, respectively). The magnitude of mean change in PVR of −30% from baseline was at the same level as for the inhaled competitor Treprostinil (Tyvaso®) after single administration in a historical comparison [Voswinckel et al, Journal of American College of Cardiology Vol. 48, No. 8, 2006 Oct. 17, 2006:1672-81]. However, the effect after example 4 application was advantageously sustained with no decrease in response until the end of the measurement period of 3 h (a measurement period of >3 h was technically not feasible for the patients with right heart catheter in the study). […] Increase of systemic cGMP (cyclic Guanosine Monophosphate) confirmed strong target engagement of sGC activation. […]",
  "key": {"[1]": {"conditions": "240 μg, 0 D 00 H 00 M (baseline)"}, "[2]": {"conditions": "480 μg, 0 D 00 H 00 M (baseline)"}, "[3]": {"conditions": "1000 μg, 0 D 00 H 00 M (baseline)"}},
  "data": [
    {"compound": "O=C(O)c1ccc(CCN(CCc2ccccc2OCc2ccc(-c3ccc(C(F)(F)F)cc3)cc2Cl)[C@H]2CCCc3nc(C(=O)O)ccc32)cc1", "note": "[example 4, (5S)-{[2-(4-Carboxyphenyl)ethyl][2-(2-{[3-chloro-4′-(trifluoromethyl)biphenyl-4-yl]methoxy}phenyl)-ethyl]amino}-5,6,7,8-tetrahydroquinoline-2-carboxylic acid]", "values": [
      {"measurement": "mean peak change of PVR from baseline", "setting": "240 μg", "result": "−21.0", "unit": "%"},
      {"measurement": "mean pulmonary arterial pressure (mPAP), mean ± SD", "setting": "[1]", "result": "42.8 ± 11.1", "unit": "mmHg"},
      {"measurement": "pulmonary vascular resistance (PVR), mean ± SD", "setting": "[1]", "result": "788.338 ± 416.914", "unit": "dyn·sec·cm^−5"},
      {"measurement": "mean pulmonary arterial pressure (mPAP), mean ± SD", "setting": "240 μg, 0 D 00 H 30 M", "result": "42.5 ± 11.0", "unit": "mmHg"},
      {"measurement": "pulmonary vascular resistance (PVR), mean ± SD", "setting": "240 μg, 0 D 00 H 30 M", "result": "749.012 ± 398.928", "unit": "dyn·sec·cm^−5"},
      {"measurement": "mean pulmonary arterial pressure (mPAP), mean ± SD", "setting": "240 μg, 0 D 01 H 00 M", "result": "44.3 ± 10.4", "unit": "mmHg"},
      {"measurement": "pulmonary vascular resistance (PVR), mean ± SD", "setting": "240 μg, 0 D 01 H 00 M", "result": "734.427 ± 396.799", "unit": "dyn·sec·cm^−5"},
      {"measurement": "mean pulmonary arterial pressure (mPAP), mean ± SD", "setting": "240 μg, 0 D 01 H 30 M", "result": "43.0 ± 8.0", "unit": "mmHg"},
      {"measurement": "pulmonary vascular resistance (PVR), mean ± SD", "setting": "240 μg, 0 D 01 H 30 M", "result": "726.362 ± 364.099", "unit": "dyn·sec·cm^−5"},
      {"measurement": "mean pulmonary arterial pressure (mPAP), mean ± SD", "setting": "240 μg, 0 D 02 H 00 M", "result": "39.5 ± 7.9", "unit": "mmHg"},
      {"measurement": "pulmonary vascular resistance (PVR), mean ± SD", "setting": "240 μg, 0 D 02 H 00 M", "result": "710.844 ± 410.668", "unit": "dyn·sec·cm^−5"},
      {"measurement": "mean pulmonary arterial pressure (mPAP), mean ± SD", "setting": "240 μg, 0 D 02 H 30 M", "result": "42.0 ± 6.5", "unit": "mmHg"},
      {"measurement": "pulmonary vascular resistance (PVR), mean ± SD", "setting": "240 μg, 0 D 02 H 30 M", "result": "716.209 ± 419.311", "unit": "dyn·sec·cm^−5"},
      {"measurement": "mean pulmonary arterial pressure (mPAP), mean ± SD", "setting": "240 μg, 0 D 03 H 00 M", "result": "39.0 ± 4.2", "unit": "mmHg"},
      {"measurement": "pulmonary vascular resistance (PVR), mean ± SD", "setting": "240 μg, 0 D 03 H 00 M", "result": "657.829 ± 291.191", "unit": "dyn·sec·cm^−5"},
      {"measurement": "mean peak change of PVR from baseline", "setting": "480 μg", "result": "−16.1", "unit": "%"},
      {"measurement": "mean pulmonary arterial pressure (mPAP), mean ± SD", "setting": "[2]", "result": "55.0 ± 8.6", "unit": "mmHg"},
      {"measurement": "pulmonary vascular resistance (PVR), mean ± SD", "setting": "[2]", "result": "1055.863 ± 317.077", "unit": "dyn·sec·cm^−5"},
      {"measurement": "mean pulmonary arterial pressure (mPAP), mean ± SD", "setting": "480 μg, 0 D 00 H 30 M", "result": "52.3 ± 8.4", "unit": "mmHg"},
      {"measurement": "pulmonary vascular resistance (PVR), mean ± SD", "setting": "480 μg, 0 D 00 H 30 M", "result": "1003.264 ± 300.639", "unit": "dyn·sec·cm^−5"},
      {"measurement": "mean pulmonary arterial pressure (mPAP), mean ± SD", "setting": "480 μg, 0 D 01 H 00 M", "result": "53.8 ± 9.1", "unit": "mmHg"},
      {"measurement": "pulmonary vascular resistance (PVR), mean ± SD", "setting": "480 μg, 0 D 01 H 00 M", "result": "1007.504 ± 290.883", "unit": "dyn·sec·cm^−5"},
      {"measurement": "mean pulmonary arterial pressure (mPAP), mean ± SD", "setting": "480 μg, 0 D 01 H 30 M", "result": "55.0 ± 8.0", "unit": "mmHg"},
      {"measurement": "pulmonary vascular resistance (PVR), mean ± SD", "setting": "480 μg, 0 D 01 H 30 M", "result": "1031.647 ± 252.210", "unit": "dyn·sec·cm^−5"},
      {"measurement": "mean pulmonary arterial pressure (mPAP), mean ± SD", "setting": "480 μg, 0 D 02 H 00 M", "result": "52.5 ± 7.9", "unit": "mmHg"},
      {"measurement": "pulmonary vascular resistance (PVR), mean ± SD", "setting": "480 μg, 0 D 02 H 00 M", "result": "908.704 ± 252.569", "unit": "dyn·sec·cm^−5"},
      {"measurement": "mean pulmonary arterial pressure (mPAP), mean ± SD", "setting": "480 μg, 0 D 02 H 30 M", "result": "54.0 ± 9.7", "unit": "mmHg"},
      {"measurement": "pulmonary vascular resistance (PVR), mean ± SD", "setting": "480 μg, 0 D 02 H 30 M", "result": "1038.344 ± 263.837", "unit": "dyn·sec·cm^−5"},
      {"measurement": "mean pulmonary arterial pressure (mPAP), mean ± SD", "setting": "480 μg, 0 D 03 H 00 M", "result": "56.0 ± 11.1", "unit": "mmHg"},
      {"measurement": "pulmonary vascular resistance (PVR), mean ± SD", "setting": "480 μg, 0 D 03 H 00 M", "result": "909.265 ± 259.510", "unit": "dyn·sec·cm^−5"},
      {"measurement": "mean peak change of PVR from baseline", "setting": "1000 μg", "result": "−25.9", "unit": "%"},
      {"measurement": "mean pulmonary arterial pressure (mPAP), mean ± SD", "setting": "[3]", "result": "34.3 ± 4.9", "unit": "mmHg"},
      {"measurement": "pulmonary vascular resistance (PVR), mean ± SD", "setting": "[3]", "result": "608.898 ± 135.153", "unit": "dyn·sec·cm^−5"},
      {"measurement": "mean pulmonary arterial pressure (mPAP), mean ± SD", "setting": "1000 μg, 0 D 00 H 30 M", "result": "33.8 ± 7.5", "unit": "mmHg"},
      {"measurement": "pulmonary vascular resistance (PVR), mean ± SD", "setting": "1000 μg, 0 D 00 H 30 M", "result": "645.387 ± 211.946", "unit": "dyn·sec·cm^−5"},
      {"measurement": "mean pulmonary arterial pressure (mPAP), mean ± SD", "setting": "1000 μg, 0 D 01 H 00 M", "result": "31.8 ± 7.4", "unit": "mmHg"},
      {"measurement": "pulmonary vascular resistance (PVR), mean ± SD", "setting": "1000 μg, 0 D 01 H 00 M", "result": "558.324 ± 169.860", "unit": "dyn·sec·cm^−5"},
      {"measurement": "mean pulmonary arterial pressure (mPAP), mean ± SD", "setting": "1000 μg, 0 D 01 H […]", "result": "32.0 ± 8.9", "unit": "mmHg"}
    ]}
  ]
}
